Reference: patent publication US20060183902A1, “Dihydroindolyl methanones as alpha 1a/1d adrenoreceptor modulators for the treatment of benign prostatic hypertrophy and lower urinary tract symptoms” (priority 2005, published 2006)
Values joined by “and” are separate entries in the source; they are usually repeats but may differ in a detail not shown here. Equal values may be shown once.

Legend:
α1a-AR = target: T1, α1a-AR (Homo sapiens, UniProt P35348); experiment: α1-Adrenergic receptor radio-ligand (125I-HEAT) binding assay, α1a subtype; details: COS-7 cell membranes transfected with α1a-AR, 125I-HEAT 50 pM; read-out: Receptor Binding, Ki α1a-AR
T1 construct: expressed in transfected cells; host or cells: COS-7
T1 sequence (P35348 1-466): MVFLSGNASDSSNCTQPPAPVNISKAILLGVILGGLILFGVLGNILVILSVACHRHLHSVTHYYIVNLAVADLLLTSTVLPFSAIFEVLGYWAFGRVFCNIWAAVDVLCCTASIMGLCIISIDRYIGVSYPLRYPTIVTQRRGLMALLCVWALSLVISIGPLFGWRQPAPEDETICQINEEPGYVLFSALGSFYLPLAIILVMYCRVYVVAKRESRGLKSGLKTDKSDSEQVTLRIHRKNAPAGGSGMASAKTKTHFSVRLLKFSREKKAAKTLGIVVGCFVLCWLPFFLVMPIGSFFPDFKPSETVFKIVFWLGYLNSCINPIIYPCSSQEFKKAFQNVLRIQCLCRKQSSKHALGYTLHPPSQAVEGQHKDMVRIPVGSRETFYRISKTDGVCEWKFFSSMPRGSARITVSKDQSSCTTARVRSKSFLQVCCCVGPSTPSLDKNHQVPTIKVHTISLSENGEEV
Method: (§1) Membranes were prepared from COS-7 cells (African Green monkey kidney SV40-transformed cells) that had been transfected with one of the three α1-AR subtypes by the following method:
(§2) COS cells from ten 100 mm tissue culture plates were scraped into a 5 mL volume of TE (a mixture of 50 mM tris(hydroxymethyl)aminomethane hydrochloride (Tris-HCl) and 5 mM ethylenediaminetetraacetic acid (EDTA) at pH 7.4). The cell suspension was disrupted with a Brinkman Polytron (at a setting of 8) for 10 sec. The disrupted cells were centrifuged at 1000×g for 10 min at 4° C. Supernatants were centrifuged at 34,500×g for 20 min at 4° C. The membrane pellets were suspended in a 2 mL volume of TNE (a mixture of 50 mM Tris-HCl, 5 mM EDTA and 150 mM NaCl at pH7.4). An aliquot of the membrane suspension was stored at −70° C. until use. The protein concentration was determined using a BioRad “DC” protein assay kit following membrane solubilization with Triton X-100.
(§3) Triplicate determinations of radio-ligand binding in the presence of increasing concentrations of testing compound were made. The reagents were added to 96-well polypropylene plate wells. Each assay well contained 140 μL TNE, 25 μL ^125I-2-(β-4-hydroxyplenyl)ethylaminomethyltetralone (^125I-HEAT) (specific activity 2200 Ci/mmol, Dupont-New England Nuclear, 50 pM final), 10 μL testing compound dissolved in dimethyl sulfoxide (DMSO) (1 pM to 10 μM in half-log increments, final), and 25 μL appropriate α1-AR membrane subtype suspension in TNE (0.5 ng/μL for the α1a and α1b subtypes and 13 ng/μL for the α1d subtype). The plate was incubated at rt for 1 hr. The contents of the wells were filtered through a glass filter (type C) (GF/C) membrane Unifilter plate (Packard Instruments) using the Packard Filtermate cell harvester. The filter plates were dried in a vacuum oven for 30 min at 40° C. 25 μL Microscint 20 liquid scintillation fluid (Packard Instuments) was added to each well. The radioactive content was analyzed in the TopCount microplate scintillation counter (Packard Instruments).
(§4) The Ki values (in nM) shown in Table 1 were determined using GraphPad Prism software.

α1b-AR = target: T2, α1b-AR (Homo sapiens, UniProt P35368); experiment: α1-Adrenergic receptor radio-ligand (125I-HEAT) binding assay, α1b subtype; details: COS-7 cell membranes transfected with α1b-AR, 125I-HEAT 50 pM; read-out: Receptor Binding, Ki α1b-AR
T2 construct: expressed in transfected cells; host or cells: COS-7
T2 sequence (P35368 1-520): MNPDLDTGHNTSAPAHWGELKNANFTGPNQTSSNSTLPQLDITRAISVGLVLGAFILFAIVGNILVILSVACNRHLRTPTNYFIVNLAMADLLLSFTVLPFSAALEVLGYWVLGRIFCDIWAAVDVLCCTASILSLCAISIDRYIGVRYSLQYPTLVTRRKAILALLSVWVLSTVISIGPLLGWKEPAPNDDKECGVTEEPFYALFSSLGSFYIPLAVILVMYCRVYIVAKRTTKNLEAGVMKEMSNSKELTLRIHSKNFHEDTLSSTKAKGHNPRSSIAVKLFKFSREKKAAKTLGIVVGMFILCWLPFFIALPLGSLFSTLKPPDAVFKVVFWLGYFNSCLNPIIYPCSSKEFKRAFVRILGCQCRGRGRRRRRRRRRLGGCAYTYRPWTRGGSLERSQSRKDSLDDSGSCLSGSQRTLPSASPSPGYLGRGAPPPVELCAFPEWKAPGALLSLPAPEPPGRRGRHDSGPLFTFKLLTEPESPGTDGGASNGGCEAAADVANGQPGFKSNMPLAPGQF
Method: as §1, §2, §3, §4

α1d-AR = target: T3, α1d-AR (Homo sapiens, UniProt P25100); experiment: α1-Adrenergic receptor radio-ligand (125I-HEAT) binding assay, α1d subtype; details: COS-7 cell membranes transfected with α1d-AR, 125I-HEAT 50 pM; read-out: Receptor Binding, Ki α1d-AR
T3 construct: expressed in transfected cells; host or cells: COS-7
T3 sequence (P25100 1-572): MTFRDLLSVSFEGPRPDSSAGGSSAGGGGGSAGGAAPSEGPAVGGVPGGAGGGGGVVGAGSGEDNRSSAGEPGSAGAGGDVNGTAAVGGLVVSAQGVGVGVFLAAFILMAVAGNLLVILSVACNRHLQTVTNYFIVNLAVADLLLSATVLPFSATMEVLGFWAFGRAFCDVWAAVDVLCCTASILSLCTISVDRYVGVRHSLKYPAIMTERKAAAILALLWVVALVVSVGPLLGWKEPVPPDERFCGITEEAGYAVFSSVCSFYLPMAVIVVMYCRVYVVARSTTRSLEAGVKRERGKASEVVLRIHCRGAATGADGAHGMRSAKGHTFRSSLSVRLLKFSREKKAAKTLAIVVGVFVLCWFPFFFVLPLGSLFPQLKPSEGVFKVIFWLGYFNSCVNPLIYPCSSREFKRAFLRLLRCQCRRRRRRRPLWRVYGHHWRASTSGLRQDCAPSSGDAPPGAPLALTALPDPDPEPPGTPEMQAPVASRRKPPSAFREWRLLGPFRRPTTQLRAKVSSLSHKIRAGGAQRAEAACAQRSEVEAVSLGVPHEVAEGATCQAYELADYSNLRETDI
Method: as §1, §2, §3, §4

Ki (α1a-AR)	Ki (α1b-AR)	Ki (α1d-AR)	SMILES
48 nM	1470 nM	15 nM	CCOC(OCC)c1ccc(CNc2ccc3c(c2)CCN3C(=O)c2cccc(CN3CCN(c4ccccc4OC(C)C)CC3)c2)cc1 [Cpd 24, [5-(4-diethoxymethyl-benzylamino)-2,3-dihydro-indol-1-yl]-{3-[4-(2-isopropoxy-phenyl)-piperazin-1-ylmethyl]-phenyl}-methanone]
16.5 nM	379 nM	11 nM	CC(C)Oc1ccccc1N1CCN(Cc2cccc(C(=O)N3CCc4cc(NCc5ccc6c(c5)OCO6)ccc43)c2)CC1 [Cpd 27, {5-[(benzo[1,3]dioxol-5-ylmethyl)-amino]-2,3-dihydro-indol-1-yl}-{3-[4-(2-isopropoxy-phenyl)-piperazin-1-ylmethyl]-phenyl}-methanone]
17 nM	796 nM	6.8 nM	COc1cccc(OC)c1C(=O)Nc1ccc2c(c1)N(C(=O)c1cccc(CN3CCN(c4ccccc4OC(C)C)CC3)c1)CC2 [Cpd 28, N-(1-{3-[4-(2-isopropoxy-phenyl)-piperazin-1-ylmethyl]-benzoyl}-2,3-dihydro-1H-indol-6-yl)-2,6-dimethoxy-benzamide]
26 nM and 30.5 nM	278 nM and 193 nM	4.5 nM and 42 nM	COc1ccccc1N1CCN(Cc2cccc(C(=O)N3CCc4ccccc43)c2)CC1 [Cpd 30, (2,3-dihydro-indol-1-yl)-{3-[4-(2-methoxy-phenyl)-piperazin-1-ylmethyl]-phenyl}-methanone]
171 nM	331 nM	11.6 nM and 88 nM	N#Cc1ccccc1N1CCN(Cc2cccc(C(=O)N3CCc4ccccc43)c2)CC1 [Cpd 31, (2,3-dihydro-indol-1-yl)-{3-[4-(2-cyano-phenyl)-piperazin-1-ylmethyl]-phenyl}-methanone]
48.8 nM	658 nM	49.1 nM	COc1ccccc1C1CCN(Cc2ccc(C(=O)N3CCc4cc(N)ccc43)cc2)CC1 [Cpd 33, (5-amino-2,3-dihydro-indol-1-yl)-{4-[4-(2-methoxy-phenyl)-piperidin-1-ylmethyl]-phenyl}-methanone]
34.9 nM	473 nM	49.6 nM	COc1ccccc1C1CCN(Cc2ccc(C(=O)N3CCc4ccc(N)cc43)cc2)CC1 [Cpd 34, (6-amino-2,3-dihydro-indol-1-yl)-{4-[4-(2-methoxy-phenyl)-piperidin-1-ylmethyl]-phenyl}-methanone]
5.3 nM	201 nM	8.5 nM	COc1ccccc1C1CCN(Cc2ccc(C(=O)N3CCc4ccc([N+](=O)[O-])cc43)cc2)CC1 [Cpd 35, {4-[4-(2-methoxy-phenyl)-piperidin-1-ylmethyl]-phenyl}-(6-nitro-2,3-dihydro-indol-1-yl)-methanone]
39.2 nM	1010 nM	40.2 nM	CCOC(OCC)c1ccc(CNc2ccc3c(c2)CCN3C(=O)c2ccc(CN3CCC(c4ccccc4OC)CC3)cc2)cc1 [Cpd 36, [5-(4-diethoxymethyl-benzylamino)-2,3-dihydro-indol-1-yl]-{4-[4-(2-methoxy-phenyl)-piperidin-1-ylmethyl]-phenyl}-methanone]
75.6 nM	909 nM	98 nM	CCOC(OCC)c1ccc(CNc2ccc3c(c2)N(C(=O)c2ccc(CN4CCC(c5ccccc5OC)CC4)cc2)CC3)cc1 [Cpd 37, [6-(4-diethoxymethyl-benzylamino)-2,3-dihydro-indol-1-yl]-{4-[4-(2-methoxy-phenyl)-piperidin-1-ylmethyl]-phenyl}-methanone]
124 nM	461 nM	44.2 nM	COc1ccccc1C1CCN(Cc2ccc(C(=O)N3CCc4cc([N+](=O)[O-])ccc43)cc2)CC1 [Cpd 38, {4-[4-(2-methoxy-phenyl)-piperidin-1-ylmethyl]-phenyl}-(5-nitro-2,3-dihydro-indol-1-yl)-methanone]
74 nM	595 nM	41 nM	COc1ccccc1C1CCN(Cc2ccc(C(=O)N3CCc4ccc(NC(=O)c5c(OC)cccc5OC)cc43)cc2)CC1 [Cpd 39, 2,6-dimethoxy-N-(1-{4-[4-(2-methoxy-phenyl)-piperidin-1-ylmethyl]-benzoyl}-2,3-dihydro-1H-indol-6-yl)-benzamide]
31 nM	208 nM	1.5 nM	CC(C)Oc1ccccc1N1CCN(Cc2cccc(C(=O)N3CCc4ccc(NCc5ccc6c(c5)OCO6)cc43)c2)CC1 [Cpd 41, {6-[(benzo[1,3]dioxol-5-ylmethyl)-amino]-2,3-dihydro-indol-1-yl}-{3-[4-(2-isopropoxy-phenyl)-piperazin-1-ylmethyl]-phenyl}-methanone]
3.8 nM	447 nM	5.8 nM	COc1ccc(C(=O)Nc2ccc3c(c2)N(C(=O)c2cccc(CN4CCN(c5ccccc5OC(C)C)CC4)c2)CC3)cc1 [Cpd 42, N-(1-{3-[4-(2-isopropoxy-phenyl)-piperazin-1-ylmethyl]-benzoyl}-2,3-dihydro-1H-indol-5-yl)-4-methoxy-benzamide]
7.8 nM and 3.4 nM	204 nM and 185 nM	2.8 nM and 3.2 nM	CC(C)Oc1ccccc1N1CCN(Cc2cccc(C(=O)N3CCc4ccc(N(C(=O)Nc5c(F)cccc5F)C(=O)Nc5c(F)cccc5F)cc43)c2)CC1 [Cpd 43, 3-(2,6-difluoro-phenyl)-1-(1-{3-[4-(2-isopropoxy-phenyl)-piperazin-1-ylmethyl]-benzoyl}-2,3-dihydro-1H-indol-6-yl)-1-(2,6-difluorophenylaminocarbonyl)-urea]
2.6 nM	888 nM	4 nM	CC(C)Oc1ccccc1N1CCN(Cc2cccc(C(=O)N3CCc4ccc(NS(=O)(=O)c5c(F)cccc5F)cc43)c2)CC1 [Cpd 45, 2,6-difluoro-N-(1-{3-[4-(2-isopropoxy-phenyl)-piperazin-1-ylmethyl]-benzoyl}-2,3-dihydro-1H-indol-6-yl)-benzenesulfonamide]
